Earlier results on 1 molecule are cited in publication PMC8230491 (Pharmaceuticals, 2021).

Broadly, the pKa is the negative logarithm of the acid dissociation constant.

The conditions of the series: KET COOH; protonated LYS γ-NH2; no reference given.

Turning to `NCCCC[C@H](N)C(=O)O` [LYS, lysine], the pKa was 10.29.
